PubChem BioAssay (NCI)
“And” between values parts separate entries of the source, which are not always exact repeats. Equal entries are not always repeated.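 Tested at 5 concentrations; 48 h exposure; 96-well plates; endpoints linearly interpolated, else capped at highest concentration. GI50 = concentration required for 50% inhibition of growth. TGI denotes the concentration required for complete inhibition of growth.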

Legend:
Assay in all cases: DTP human tumour cell line panel, 48 h
[1] = system: MALME-3M melanoma
[2] = system: MDA-MB-435
[3] = system: NCI/ADR-RES ovarian
[4] = system: HT29 colon
[5] = system: HCT-15 colon
[6] = system: T-47D breast
[7] = system: SN12C renal
[8] = system: MDA-MB-231 breast
[9] = system: NCI-H460 lung
[10] = system: RXF 393 renal

| Structure (SMILES) | TGI [1] | TGI [2] | TGI [3] | TGI [4] | TGI [5] | TGI [6] | TGI [7] | TGI [8] | TGI [9] | TGI [10] | GI50 [1] | GI50 [10] | GI50 [4] | GI50 [5] | GI50 [7] | GI50 [9] | GI50 [2] | GI50 [3] | GI50 [6] | GI50 [8] |
| --- | --- | --- | --- | --- | --- | --- | --- | --- | --- | --- | --- | --- | --- | --- | --- | --- | --- | --- | --- | --- |
| S=C1NC2(CCCCCC2)NN1c1ccccc1 | > 100 µM | > 100 µM | > 100 µM | > 100 µM | > 100 µM | > 100 µM | > 100 µM | > 100 µM | > 100 µM | – | – | – | – | – | – | – | – | – | – | – |
| CC1=NNC(=O)C2CCC(=O)N12 (configuration not stated) | > 100 µM | – | – | – | > 100 µM | – | > 100 µM | – | > 100 µM | > 100 µM | – | – | – | – | – | – | – | – | – | – |
| N#Cc1nc(Nc2cccc3ccccc23)sc1N | > 100 µM | – | – | > 100 µM | > 100 µM | – | > 100 µM | – | > 100 µM | – | – | – | – | – | – | – | – | – | – | – |
| Cc1cc([N+](=O)[O-])ccc1Nc1cccc(Cl)c1C | 29.2 µM | – | – | 32 µM | 35 µM | – | 32.1 µM | – | – | 34.5 µM | – | – | – | – | – | – | – | – | – | – |
| CCC[CH2][Sn]1([CH2]CCC)[O]N=C(c2ccccc2)C(c2ccccc2)[O]1 (configuration not stated) | 2.49 µM | – | – | 5.4 µM | 2.77 µM | – | 3.18 µM | – | 15.8 µM | 2.87 µM | 1.13 µM | 1.5 µM | 2.46 µM | 1.46 µM | 1.77 µM | 4.46 µM | – | – | – | – |
| COc1cc(C(Cc2ccccc2)NC(C)=O)oc(=O)c1 (configuration not stated) | > 100 µM | – | – | > 100 µM | > 100 µM | – | > 100 µM | – | > 100 µM | > 100 µM | – | – | – | – | – | – | – | – | – | – |
| S=C(Nc1ccccc1)N(/N=C/C=C/c1ccccc1)c1nnc(-c2ccccc2)c(-c2ccccc2)n1 | > 100 µM | – | – | > 100 µM | > 100 µM | – | > 100 µM | – | > 100 µM | > 100 µM | – | – | – | – | – | – | – | – | – | – |
| COc1ccc(/C=C(/C(=O)N2CCN(c3ccccc3)CC2)c2cc(OC)c(OC)c(OC)c2)cc1O | > 100 µM | 0.514 µM | > 100 µM | 38.5 µM | > 100 µM | > 100 µM | > 100 µM | 50.9 µM | > 100 µM | – | 24.7 µM | – | 5 µM | 0.341 µM | 0.564 µM | 0.374 µM | 0.15 µM | 0.676 µM | 51.3 µM | 0.378 µM |
| OC[C@H]1C[C@](O)(c2ccc(Cl)cc2)[C@@H](c2ccc(Cl)cc2)O1 | 45.4 µM | 47.8 µM | 87.5 µM | 50.1 µM | > 100 µM | – | 35.8 µM | 46.9 µM | 48.7 µM | 39.7 µM | 21.5 µM | 20.8 µM | 23.7 µM | 31.7 µM | 17 µM | 20.2 µM | 22.9 µM | 30.3 µM | – | 19.6 µM |
| CN(C)N=Nc1ccc(NC=O)cc1 | – | > 100 µM | > 100 µM | > 100 µM | > 100 µM | > 100 µM | > 100 µM | > 100 µM | > 100 µM | > 100 µM | – | – | – | – | – | – | – | – | – | – |
| O=C(/C=C/c1ccccc1O)c1ccccc1O | > 100 µM | – | – | > 100 µM | > 100 µM | – | > 100 µM | – | > 100 µM | > 100 µM | – | – | – | – | – | – | – | – | – | – |
| Cc1ccc(Cc2c(=O)[nH]nc3ccccc23)cc1 | > 100 µM | – | – | > 100 µM | > 100 µM | – | > 100 µM | – | > 100 µM | – | – | – | – | – | – | – | – | – | – | – |
| CC(C)c1ccc2c(c1)CC[C@@H]1[C@@](C)(C(=O)O)CCC[C@]21C | – | 29.5 µM | 57 µM | – | 19.6 µM | 7.58 µM | – | 6.04 µM | 18.4 µM | 0.727 µM | – | 0.0244 µM | – | 6.38 µM | – | 5.07 µM | 10.9 µM | 17.8 µM | 2.39 µM | 1.31 µM |
| Cc1nc2c(-c3cnc(N)nc3)nc(N3CCOCC3)nc2n1C(C)C | 0.46 µM and 0.225 µM | 1.32 µM and 1.16 µM | 4.81 µM | – | > 100 µM | 0.251 µM and 0.102 µM | > 100 µM | > 4.14 µM and 27.1 µM | > 100 µM | 0.611 µM and 0.315 µM | – | – | – | – | – | – | 0.182 µM and 0.113 µM | – | – | – |
| COC(=O)c1cc2c(s1)C(=O)c1ccccc1-2 | > 100 µM | – | – | – | > 100 µM | – | > 100 µM | – | > 100 µM | > 100 µM | – | – | – | – | – | – | – | – | – | – |
| COC(=O)C(=Cc1cc(OC)ccc1OC)C(=O)OC | 74.6 µM | – | – | 56.5 µM | > 100 µM | – | 64.3 µM | – | 91.6 µM | 31.3 µM | – | – | – | – | – | – | – | – | – | – |
| Cc1ccc(S(=O)(=O)N(CC(=O)O)c2ccccc2)cc1 | > 100 µM | – | – | > 100 µM | > 100 µM | – | > 100 µM | – | > 100 µM | > 100 µM | – | – | – | – | – | – | – | – | – | – |
| CO/N=C/c1cc(OC)c(OC)c(OC)c1 | > 100 µM | – | – | > 100 µM | > 100 µM | – | > 100 µM | – | > 100 µM | – | – | – | – | – | – | – | – | – | – | – |
| CCCN=C(N)NC#N | > 100 µM | – | – | > 100 µM | 38.2 µM | – | > 100 µM | – | > 100 µM | > 100 µM | – | – | – | – | – | – | – | – | – | – |
| CC1(C)COC(c2cccnc2/C=N/O)=N1 | > 100 µM | – | – | > 100 µM | > 100 µM | – | > 100 µM | – | > 100 µM | > 100 µM | – | – | – | – | – | – | – | – | – | – |
| CCOc1ccccc1C=C1c2ccccc2C(=O)c2ccccc21 | > 100 µM | – | – | – | > 100 µM | – | > 100 µM | – | 31.9 µM | 5.96 µM | – | – | – | – | – | – | – | – | – | – |
| N#CC(N)(C(=O)CCC(=O)Nc1cccc(Cl)c1)c1ccc(Cl)cc1 (configuration not stated) | > 100 µM | – | – | > 100 µM | > 100 µM | – | > 100 µM | – | > 100 µM | – | – | – | – | – | – | – | – | – | – | – |
| Cc1ccc(NC(=O)C(=O)C(C(=O)c2ccc3ccccc3c2)C2OC(=O)c3ccccc32)cc1C (configuration not stated) | 57.8 µM | – | – | > 100 µM | 24.2 µM | – | 44.8 µM | – | 51.4 µM | – | – | – | – | – | – | – | – | – | – | – |
| CN(C)c1nc2ccccc2[nH]1 | > 100 µM | – | – | > 100 µM | > 100 µM | – | > 100 µM | – | > 100 µM | > 100 µM | – | – | – | – | – | – | – | – | – | – |
| NC(=Nc1c([N+](=O)[O-])cnc2ccccc12)N1CCOCC1 | – | > 100 µM | > 100 µM | > 100 µM | > 100 µM | > 100 µM | > 100 µM | > 100 µM | > 100 µM | – | – | – | – | – | – | – | – | – | – | – |
| O=C(CCn1[nH]c(=O)c(Cl)c(Cl)c1=O)NO | > 100 µM | – | – | > 100 µM | > 100 µM | – | > 100 µM | – | > 100 µM | > 100 µM | – | – | – | – | – | – | – | – | – | – |
